# Laboratory results taken from patent publication US20200157048A1, “(2E,4E)-5-PHENYL-PENTA-2,4-DIEN-1-ONE DERIVATIVE” (BIOWAY., INC, priority 2018, published 2020).
# Entries after “also recorded” stand apart in the source; their conditions may differ.
# Tests used:
# CK2 = biological target: T1, CK2 (Homo sapiens, UniProt P68400); assay: CK2 kinase assay (CycLex CK2 kinase assay/inhibitor screening kit); type: biochemical; settings: 20 μM
# T1 construct: purchased New England Biolabs (Ipswich, Mass., USA)
# T1 sequence (P68400 whole entry): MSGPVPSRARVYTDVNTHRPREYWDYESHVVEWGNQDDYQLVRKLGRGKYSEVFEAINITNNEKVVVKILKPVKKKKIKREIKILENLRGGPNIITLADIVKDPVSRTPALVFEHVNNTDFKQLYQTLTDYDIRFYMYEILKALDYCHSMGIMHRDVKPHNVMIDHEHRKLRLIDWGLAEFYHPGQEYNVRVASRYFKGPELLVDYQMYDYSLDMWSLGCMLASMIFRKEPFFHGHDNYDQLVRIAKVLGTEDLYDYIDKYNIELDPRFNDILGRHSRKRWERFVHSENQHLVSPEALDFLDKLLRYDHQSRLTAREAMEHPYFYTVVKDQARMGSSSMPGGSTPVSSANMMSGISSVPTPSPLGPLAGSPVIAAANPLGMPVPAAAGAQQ
# T1 sequence (P67870 whole entry partner): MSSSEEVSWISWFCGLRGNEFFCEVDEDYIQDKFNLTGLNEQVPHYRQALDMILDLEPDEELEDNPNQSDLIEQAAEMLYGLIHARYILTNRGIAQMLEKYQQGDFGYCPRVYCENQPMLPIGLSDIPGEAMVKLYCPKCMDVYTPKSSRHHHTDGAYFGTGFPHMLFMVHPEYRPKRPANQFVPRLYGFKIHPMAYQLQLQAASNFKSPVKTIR
# Protocol: All materials were provided from a CycLex CK2 kinase assay/inhibitor screening kit (Medical and Biological Laboratories CO., LTD, Nagoya, Japan).
# All specimens were prepared in triplicate.
# 10 μL of a diluted sample was added to a 96-well plate placed on ice.
# Three wells having 10 μL of a CK2α positive control (2 unit/μL) were included as a positive control in each analysis method. CK2α was purchased from New England Biolabs (Ipswich, Mass., USA).
# A phosphorylation reaction was initiated by adding 90 μL of a phosphorylation reaction buffer to each well, and the 96-well plate was covered with a plate cover. The plate was incubated at 30° C. for 30 minutes. Each well was washed with a washing buffer five times, and it was confirmed whether each well was completely filled. With gentle tapping, a residual washing solution was removed.
# 100 μL of HRP-conjugated detection antibodies were added to each well, and the plate was covered with a plate cover. While the plate was incubated at room temperature (25 to 30° C.) for 30 minutes, the remaining HRP-conjugated detection antibodies after use were removed. Each well was washed five times, and the residual washing buffer was removed with gentle tapping. […]
# Absorbance at dual wavelengths of 450/540 nm was measured for each well using Cytation 5. Data was analyzed.
# Pparα mRNA = assay: qRT-PCR Pparα mRNA level in steatosis-induced Huh-7 cells; type: cell-based, Human; settings: steatosis-induced (OA/PA) Huh-7 cells; 10 μM; 24 hours
# Protocol: In Experimental Example 5, the Huh-7 cells were plated in 6 wells at 4×10^5 cells/mL and incubated under an atmosphere containing 5% CO2 at 37° C.
# One day later, the cell density approached about 80 to 90%. The medium was changed to an FBS-free RPMI1640 medium, and incubated under an atmosphere containing 5% CO2 at 37° C. for 24 hours.
# Huh-7 cells of each well, excluding control cells, were pretreated with an OA/PA mixture for one hour to induce steatosis. The control cells were pretreated with 1% FA-free BSA.
# Each well was treated with 10 μM of a test compound, and then the cells were incubated for 24 hours. The control cells and OA/PA-treated cells were treated with DMSO. Cells of a positive control were treated with 10 μM of resveratrol, 10 μM of piperine, and 10 μM of YU2014. The medium was entirely aspirated, and the cells were washed with PBS (phosphate buffered saline, Corning, Manassas, Va., USA) two times.
# Total RNA was extracted using a RNeasy RNA isolation kit (Qiagen, Hilden, Germany).
# 10 μL of β-mercaptoethanol (Sigma-Aldrich) per 1 mL of lysis buffer was added, thereby preparing an RNA lysis buffer. […]
# An RNA concentration was measured at O.D. 260 nm using a nanophotometer N60 (Implen, Munich, Germany). The concentration and purity of RNA were measured at O.D. 260/280 nm and calculated as a ratio. […]
# Quantitative analyses for the genes in Table 3 were performed.
structure (smiles),measurement,setting,value
"CSc1ccc(/C=C/C=C/C(=O)N2CCCCC2)cc1 [YU2014, (2E,4E)-5-(4-(methylthio)phenyl)-1-(piperidine-1-yl)penta-2,4-dien-1-one]",CK2 activity (FIG. 21),CK2,did not have a CK2 activity reducing effect
same,Pparα mRNA level (FIG. 10),Pparα mRNA,hardly increased; also recorded: no effect
